In US11787825B2 (priority 2021, dated 2023):
Values after ≈ are worked out from the molar mass of the structure shown. Like-named read-outs stand apart in the source and are kept apart here.

Key:
physchem = conditions: 25 °C, thermodynamic from solid
[1] = 0.1N HCL, 1.0% DMSO, 24-hour incubation at ambient temperature, maximum theoretical compound concentration 100 μM
[2] = 1×PBS buffer (pH 7.4), 1.0% DMSO, 24-hour incubation at ambient temperature, maximum theoretical compound concentration 100 μM

pH 2 solubility [1]	pH 7 solubility [2]	solubility (physchem; fasted state simulated intestinal fluid (FaSSIF), fassif) [µg/mL]	solubility (physchem; fed state simulated intestinal fluid (FeSSIF), fessif) [µg/mL]	SMILES	pH 2 solubility (pH 2)	pH 7 solubility (pH 7.4)
3 μM	75 μM	> 2840	454 (≈ 359 µM)	CC(C)(C#Cc1ccc(-c2ccc(Cl)c3c(N(C(=O)CCC(CC(=O)O)NC(=O)OCOP(=O)(O)O)S(C)(=O)=O)nn(CC(F)(F)F)c23)c([C@H](Cc2cc(F)cc(F)c2)NC(=O)Cn2nc(C(F)(F)F)c3c2C(F)(F)[C@@H]2C[C@H]32)n1)S(C)(=O)=O (stereo in doubt) [Compound 34, (R)-6-(N-(4-chloro-7-(2-((S)-1-(2-((3bS,4aR)-5,5-difluoro-3-(trifluoromethyl)-3b,4,4a,5-tetrahydro-1H-cyclopropa[3,4]cyclopenta[1,2-c]pyrazol-1-yl)acetamido)-2-(3,5-difluorophenyl)ethyl)-6-(3-methyl-3-(methylsulfonyl)but-1-yn-1-yl)pyridin-3-yl)-1-(2,2,2-trifluoroethyl)-1H-indazol-3-yl)methylsulfonamido)-6-oxo-3-((((phosphonooxy)methoxy)carbonyl)amino)hexanoic acid]		
69 μM	2 μM			CC(C)[C@H](N)C(=O)N(c1nn(CC(F)(F)F)c2c(-c3ccc(C#CC(C)(C)S(C)(=O)=O)nc3[C@H](Cc3cc(F)cc(F)c3)NC(=O)Cn3nc(C(F)(F)F)c4c3C(F)(F)[C@@H]3C[C@H]43)ccc(Cl)c12)S(C)(=O)=O [Compound 20, (S)-2-amino-N-(4-chloro-7-(2-((S)-1-(2-((3bS,4aR)-5,5-difluoro-3-(trifluoromethyl)-3b,4,4a,5-tetrahydro-1H-cyclopropa[3,4]cyclopenta[1,2-c]pyrazol-1-yl)acetamido)-2-(3,5-difluorophenyl)ethyl)-6-(3-methyl-3-(methylsulfonyl)but-1-yn-1-yl)pyridin-3-yl)-1-(2,2,2-trifluoroethyl)-1H-indazol-3-yl)-3-methyl-N-(methylsulfonyl)butanamide]		
72 μM	2 μM			CN[C@H](C(=O)N(c1nn(CC(F)(F)F)c2c(-c3ccc(C#CC(C)(C)S(C)(=O)=O)nc3[C@H](Cc3cc(F)cc(F)c3)NC(=O)Cn3nc(C(F)(F)F)c4c3C(F)(F)[C@@H]3C[C@H]43)ccc(Cl)c12)S(C)(=O)=O)C(C)C [Compound 21, N-(4-chloro-7-(2-((S)-1-(2-((3bS,4aR)-5,5-difluoro-3-(trifluoromethyl)-3b,4,4a,5-tetrahydro-1H-cyclopropa[3,4]cyclopenta[1,2-c]pyrazol-1-yl)acetamido)-2-(3,5-difluorophenyl)ethyl)-6-(3-methyl-3-(methylsulfonyl)but-1-yn-1-yl)pyridin-3-yl)-1-(2,2,2-trifluoroethyl)-1H-indazol-3-yl)-3-methyl-2-(methylamino)-N-(methylsulfonyl)butanamide]		
14 μM	22 μM			CC(C)(C#Cc1ccc(-c2ccc(Cl)c3c(N(C(=O)CN(CC(=O)O)CC(=O)O)S(C)(=O)=O)nn(CC(F)(F)F)c23)c([C@H](Cc2cc(F)cc(F)c2)NC(=O)Cn2nc(C(F)(F)F)c3c2C(F)(F)[C@@H]2C[C@H]32)n1)S(C)(=O)=O [Compound 23]		
1 μM	14 μM			CC(C)(C#Cc1ccc(-c2ccc(Cl)c3c(N(C(=O)[C@H](CCC(=O)O)NC(=O)C(=O)O)S(C)(=O)=O)nn(CC(F)(F)F)c23)c([C@H](Cc2cc(F)cc(F)c2)NC(=O)Cn2nc(C(F)(F)F)c3c2C(F)(F)[C@@H]2C[C@H]32)n1)S(C)(=O)=O [Compound 24, (S)-4-(carboxyformamido)-5-(N-(4-chloro-7-(2-((S)-1-(2-((3bS,4aR)-5,5-difluoro-3-(trifluoromethyl)-3b,4,4a,5-tetrahydro-111-cyclopropa[3,4]cyclopenta[1,2-c]pyrazol-1-yl)acetamido)-2-(3,5-difluorophenyl)ethyl)-6-(3-methyl-3-(methylsulfonyl)but-1-yn-1-yl)pyridin-3-yl)-1-(2,2,2-trifluoroethyl)-1H-indazol-3-yl)methylsulfonamido)-5-oxopentanoic acid]		
1/1 μM	1/1 μM			CC(C)(C#Cc1ccc(-c2ccc(Cl)c3c(N(C(=O)CCCC(=O)O)S(C)(=O)=O)nn(CC(F)(F)F)c23)c([C@H](Cc2cc(F)cc(F)c2)NC(=O)Cn2nc(C(F)(F)F)c3c2C(F)(F)[C@@H]2C[C@H]32)n1)S(C)(=O)=O [Compound 25, 5-(N-(4-chloro-7-(2-((S)-1-(2-((3bS,4aR)-5,5-difluoro-3-(trifluoromethyl)-3b,4,4a,5-tetrahydro-1H-cyclopropa[3,4]cyclopenta[1,2-c]pyrazol-1-yl)acetamido)-2-(3,5-difluorophenyl)ethyl)-6-(3-methyl-3-(methylsulfonyl)but-1-yn-1-yl)pyridin-3-yl)-1-(2,2,2-trifluoroethyl)-1H-indazol-3-yl)methylsulfonamido)-5-oxopentanoic acid]		
1/1 μM	1/1 μM			C[C@H](CC(=O)O)C(=O)N(c1nn(CC(F)(F)F)c2c(-c3ccc(C#CC(C)(C)S(C)(=O)=O)nc3[C@H](Cc3cc(F)cc(F)c3)NC(=O)Cn3nc(C(F)(F)F)c4c3C(F)(F)[C@@H]3C[C@H]43)ccc(Cl)c12)S(C)(=O)=O [Compound 26, (R)-4-(N-(4-chloro-7-(2-((S)-1-(2-((3bS,4aR)-5,5-difluoro-3-(trifluoromethyl)-3b,4,4a,5-tetrahydro-1H-cyclopropa[3,4]cyclopenta[1,2-c]pyrazol-1-yl)acetamido)-2-(3,5-difluorophenyl)ethyl)-6-(3-methyl-3-(methylsulfonyl)but-1-yn-1-yl)pyridin-3-yl)-1-(2,2,2-trifluoroethyl)-1H-indazol-3-yl)methylsulfonamido)-3-methyl-4-oxobutanoic acid]		
				Cc1cc(CC(=O)NCC(=O)O)c(C(C)(C)CC(=O)N(c2nn(CC(F)(F)F)c3c(-c4ccc(C#CC(C)(C)S(C)(=O)=O)nc4[C@H](Cc4cc(F)cc(F)c4)NC(=O)Cn4nc(C(F)(F)F)c5c4C(F)(F)[C@@H]4C[C@H]54)ccc(Cl)c23)S(C)(=O)=O)c(OP(=O)(O)O)c1 [Compound 63, (2-(2-(4-(N-(4-chloro-7-(2-((S)-1-(2-((3bS,4aR)-5,5-difluoro-3-(trifluoromethyl)-3b,4,4a,5-tetrahydro-1H-cyclopropa[3,4]cyclopenta[1,2-c]pyrazol-1-yl)acetamido)-2-(3,5-difluorophenyl)ethyl)-6-(3-methyl-3-(methylsulfonyl)but-1-yn-1-yl)pyridin-3-yl)-1-(2,2,2-trifluoroethyl)-1H-indazol-3-yl)methylsulfonamido)-2-methyl-4-oxobutan-2-yl)-5-methyl-3-(phosphonooxy)phenyl)acetyl)glycine]	1/85 μM	1/85 μM
				CC(C)(CC(=O)N(c1nn(CC(F)(F)F)c2c(-c3ccc(C#CC(C)(C)S(C)(=O)=O)nc3[C@H](Cc3cc(F)cc(F)c3)NC(=O)Cn3nc(C(F)(F)F)c4c3C(F)(F)[C@@H]3C[C@H]43)ccc(Cl)c12)S(C)(=O)=O)c1c(CC(=O)O)cc(C(N)=O)cc1OP(=O)(O)O [Compound 68]	<1/65 μM	<1/65 μM
				CC(C)(CC(=O)N(c1nn(CC(F)(F)F)c2c(-c3ccc(C#CC(C)(C)S(C)(=O)=O)nc3[C@H](Cc3cc(F)cc(F)c3)NC(=O)Cn3nc(C(F)(F)F)c4c3C(F)(F)[C@@H]3C[C@H]43)ccc(Cl)c12)S(C)(=O)=O)c1c(CC(=O)N[C@@H](CC(=O)O)C(=O)O)cc(C(N)=O)cc1OP(=O)(O)O [Compound 69, (2-(5-carbamoyl-2-(4-(N-(4-chloro-7-(2-((S)-1-(2-((3bS,4aR)-5,5-difluoro-3-(trifluoromethyl)-3b,4,4a,5-tetrahydro-1H-cyclopropa[3,4]cyclopenta[1,2-c]pyrazol-1-yl)acetamido)-2-(3,5-difluorophenyl)ethyl)-6-(3-methyl-3-(methylsulfonyl)but-1-yn-1-yl)pyridin-3-yl)-1-(2,2,2-trifluoroethyl)-1H-indazol-3-yl)methylsulfonamido)-2-methyl-4-oxobutan-2-yl)-3-(phosphonooxy)phenyl)acetyl)-L-aspartic acid]	3/75 μM	3/75 μM
				CC(C)(CC(=O)N(c1nn(CC(F)(F)F)c2c(-c3ccc(C#CC(C)(C)S(C)(=O)=O)nc3[C@H](Cc3cc(F)cc(F)c3)NC(=O)Cn3nc(C(F)(F)F)c4c3C(F)(F)[C@@H]3C[C@H]43)ccc(Cl)c12)S(C)(=O)=O)c1c(CC(=O)O)cccc1OP(=O)(O)O [Compound 70, 2-(2-(4-(N-(4-chloro-7-(2-((S)-1-(2-((3bS,4aR)-5,5-difluoro (trifluoromethyl)-3b,4,4a,5-tetrahydro-1H-cyclopropa[3,4]cyclopenta[1,2-c]pyrazolyl)acetamido)-2-(3,5-difluorophenyl)ethyl)-6-(3-methyl-3-(methylsulfonyl)but-1-ynyl)pyridin-3-yl)-1-(2,2,2-trifluoroethyl)-1H-indazol-3-yl)methylsulfonamido)-2-methyloxobutan-2-yl)-3-(phosphonooxy)phenyl)acetic acid]	7/94 μM	7/94 μM
				CC(C)(CC(=O)N(c1nn(CC(F)(F)F)c2c(-c3ccc(C#CC(C)(C)S(C)(=O)=O)nc3[C@H](Cc3cc(F)cc(F)c3)NC(=O)Cn3nc(C(F)(F)F)c4c3C(F)(F)[C@@H]3C[C@H]43)ccc(Cl)c12)S(C)(=O)=O)c1c(CC(=O)N[C@@H](CC(=O)O)C(=O)O)cccc1OP(=O)(O)O [Compound 71, (2-(2-(4-(N-(4-chloro-7-(2-((S)-1-(2-((3bS,4aR)-5,5-difluoro-3-(trifluoromethyl)-3b,4,4a,5-tetrahydro-1H-cyclopropa[3,4]cyclopenta[1,2-c]pyrazol-1-yl)acetamido)-2-(3,5-difluorophenyl)ethyl)-6-(3-methyl-3-(methylsulfonyl)but-1-yn-1-yl)pyridin-3-yl)-1-(2,2,2-trifluoroethyl)-1H-indazol-3-yl)methylsulfonamido)-2-methyl-4-oxobutan-2-yl)-3-(phosphonooxy)phenyl)acetyl)-L-aspartic acid]	2/88 μM	2/88 μM
